In patent publication US5744444A, “HPTH-fragment-(1-37), the preparation thereof, medicaments containing same and the use thereof” (HaemoPep Pharma GmbH, priority 1989, dated 1998):

B1: hPTH-(1-84): the secreted PTH molecule consisting of 84 amino acids (peptide, UniProt P01270 32-115, looked up)
Parathyroid hormone: SVSEIQLMHNLGKHLNSMERVEWLRKKLQDVHNFVALGAPLAPRDAGSQRPRKKEDNVLVESHEKSLGEADKADVNVLTKAKSQ
modifications: Parathyroid hormone
notes: the secreted PTH molecule consisting of 84 amino acids

Tests used:
[1] = secondary structure by UV circular dichroism; assay type: physicochemical; details: 50 μg/ml, 10 mM Tris-HCl buffer pH 7.5, room temperature, 190-240 nm; calculated by the method of Reed and Kinzel
Description: The circular dichroism was measured by means of a Jasco J-500 Automatic Recording Spectropolarimeter coupled with a Jasco DP-500 Data Processor. For the determination of the secondary structure, the measurement was carried out in the spectral range of from 190 nm to 240 nm at room temperature in a selected quartz cuvette at a light path of 1 mm. The parathormone concentrations employed were 50 μg/ml of hPTH-(1-33), 50 μg/ml of hPTH-(1-37) and 50 μg/ml of hPTH-(1-38). 10 mM Tris-HCl buffer pH 7.5 was used for dissolution (other conditions of the measurement: Sensitivity 2 milli-degrees/cm; time constant 2 seconds; recorder speed: 4 nm/min; wave length expansion: 5 nm/cm). The curves in FIG. 13 for hPTH-(1-33) hPTH-(1-37) and hPTH-(1-38) are average values for the signals from 4 subsequent measurements minus the base line values.
The evaluation for determining the secondary structure was performed in accordance with the method described by Reed and Kinzel (Biochemistry 23, 1357-1362, 1984).

hPTH-(53-84)-RIA = details: synthetic hPTH peptides; data provided by the producer (Immundiagnostik); cited from earlier work
hPTH-(44-68)-RIA = details: synthetic hPTH peptides; data provided by the producer (Immundiagnostik); cited from earlier work

Molecule | α-helix proportion of the secondary structure [1] | cross-reaction in the hPTH-(53-84)-RIA (hPTH-(53-84)-RIA) | cross-reaction in the hPTH-(44-68)-RIA (hPTH-(44-68)-RIA)
hPTH-(1-33): synthetic N-terminal human PTH fragment, comparison peptide (SVSEIQLMHNLGKHLNSMERVEWLRKKLQDVHN; Parathyroid hormone; UniProt P01270 32-64, looked up, fragment) | similarly low as in hPTH-(1-38) | – | –
hPTH-(1-34): known synthetic amino-terminal partial sequence of human PTH (SVSEIQLMHNLGKHLNSMERVEWLRKKLQDVHNF; Parathyroid hormone; UniProt P01270 32-65, looked up, fragment) | – | do not show any cross-reaction | do not show any cross-reaction
hPTH-(1-38): known synthetic amino-terminal partial sequence of human PTH, comparison peptide (SVSEIQLMHNLGKHLNSMERVEWLRKKLQDVHNFVALG; Parathyroid hormone; UniProt P01270 32-69, looked up, fragment) | about 27% | – | –
hPTH-(28-48): synthetic hPTH peptide tested for cross-reaction in the RIAs (LQDVHNFVALGAPLAPRDAGS; Parathyroid hormone; UniProt P01270 59-79, looked up, fragment) | – | do not show any cross-reaction | do not show any cross-reaction
hPTH-(44-68): synthetic hPTH peptide, standard of the medium-regional RIA (RDAGSQRPRKKEDNVLVESHEKSLG; Parathyroid hormone; UniProt P01270 75-99, looked up, fragment) | – | do not show any cross-reaction | –
hPTH-(53-84): synthetic hPTH peptide, standard of the C-terminal RIA (KKEDNVLVESHEKSLGEADKADVNVLTKAKSQ; Parathyroid hormone; UniProt P01270 84-115, looked up, fragment) | – | – | 100%
hPTH-(64-84): synthetic hPTH peptide tested for cross-reaction in the RIAs (EKSLGEADKADVNVLTKAKSQ; Parathyroid hormone; UniProt P01270 95-115, looked up, fragment) | – | 100% | do not show any cross-reaction
B1 | – | 100% | 100%
